Data: US6162810A, “Inadone and tetralone compounds for inhibiting cell proliferation” (The Regents of the University of California, priority 1998, dated 2000)
Like-named read-outs stand apart in the source and are kept apart here.

Key:
[1] = system: CEM WT, CEM AB9228, MOLT-4, Jurkat, NALL-1, WI-L2, K562, and HL-60 cells; assay: Cytotoxicity to various proliferating cell lines (average); type: cell-based, human; details: Homo sapiens
Description: (§1) (B) Similarly, compounds of the invention were tested for their ability to kill CEM WT, CEM AB9228, MOLT-4, Jurkat, NALL-1, WI-L2, K562, and HL-60 cells.

proliferating cells = assay: Ability of further compounds to kill proliferating cells (average); type: cell-based
Description: as §1
(C) Proceeding as described above, further compounds were tested for their ability to kill proliferating cells.

HL-60/ADR cells = assay: Apoptosis of HL-60/ADR cells (FACS); type: cell-based, human
Description: FACS analysis was performed to determine the influence of the TB compounds of the invention on growth cycling of cells (the analysis was performed on harvested cells, fixed in ice-cold 70% ethanol solution, then treated with 100 μg/ml of RNAse A and stained with 50 μg/ml propidium iodide for 1 h at 37° C. DNA content of the cells was analyzed by flow cytometry (Becton Dickinson FACScalibur), and the cell cycle distribution was calculated with the program ModFit LT 2.0 (Verity Software)).
First, the stage at which the TB compounds of the invention arrest growth of HL-60 and HL-60/ADR cells was determined by FACS analysis and caspase-3 activation as described above.

caspase-3 in HL-60 cells = assay: Caspase-3 activation in HL-60 cells; type: cell-based, human; details: HL-60 cells
[2] = system: human Jurkat T cell leukemia cells; assay: Cytotoxicity to human Jurkat T cell leukemia cells, 3 days culture; type: cell-based; details: 72 h, concentration necessary to kill 50% of the cells, three days, OD570/650, read-out: TC50 (the source's name)
Description: (A) The compounds prepared in Example 1 above were tested for biological activity by culturing human Jurkat T cell leukemia cells for three days at an initial density of 10^5 cells/ml in RPMI 1640+10% FBS (fetal bovine serum). Compounds of the invention were added, and the concentration necessary to kill 50% (TC50) of the cells was determined by OD570/650.

MCF-7 = assay: Growth inhibition of MCF-7 (wild type); type: cell-based; details: Homo sapiens, MCF7, ±1 SD, n>5
MCF-7/ADR = assay: Growth inhibition of MCF-7/ADR (MDR); type: cell-based; details: Homo sapiens, NCI/ADR-RES, ±1 SD, n>5
MES-SA = assay: Growth inhibition of MES-SA (wild type); type: cell-based; details: Homo sapiens, ±1 SD, n>5
MES-SA/DX5 = assay: Growth inhibition of MES-SA/DX5 (MDR); type: cell-based; details: Homo sapiens, ±1 SD, n>5
MDA-MB-321 = assay: Growth inhibition of MDA-MB-321 (wild type); type: cell-based; details: Homo sapiens, ±1 SD, n>5
MDA3-1/gp170 = assay: Growth inhibition of MDA3-1/gp170 (MDR); type: cell-based; details: Homo sapiens, MDR1, ±1 SD, n>5
HL-60 = assay: Growth inhibition of HL-60 (wild type); type: cell-based; details: Homo sapiens, ±1 SD, n>5
HL-60/ADR = assay: Growth inhibition of HL-60/ADR (MDR); type: cell-based; details: Homo sapiens, HL60/ADR, ±1 SD, n>5
CEM = assay: Growth inhibition of CEM (wild type); type: cell-based; details: Homo sapiens, CCRF-CEM, ±1 SD, n>5
CEM/VLB100 = assay: Growth inhibition of CEM/VLB100 (MDR); type: cell-based; details: Homo sapiens, ±1 SD, n>5
KB-3-1 = assay: Growth inhibition of KB-3-1 (wild type); type: cell-based; details: Homo sapiens, ±1 SD, n>5
KB-GRC-1 = assay: Growth inhibition of KB-GRC-1 (MDR); type: cell-based; details: Homo sapiens, MDR1, ±1 SD, n>5
MV522 = assay: Growth inhibition of MV522 (wild type); type: cell-based; details: Homo sapiens, ±1 SD, n>5
MV522/Q6 = assay: Growth inhibition of MV522/Q6 (MDR); type: cell-based; details: Homo sapiens, ±1 SD, n>5
[3] = system: HL-60/ADR and MDF-7/ADR cells; assay: MTT assay, visual comparison of cells with and without MDR (FIGS. 1 and 2); type: cell-based, human; details: 3 days
KB-GRC-1 and MV522/Q6 = assay: MTT proliferation assay of mdr1 overexpressing transfectomas; type: cell-based, human; details: 72 h
tubulin [4] = assay: Inhibition of tubulin assembly; type: biochemical, bovine; details: 10 μM tubulin, 20 min incubation, 30° C.; read-out: GI50 inhibitory concentration (tubulin assembly)
Description: To evaluate the effects of the TB compounds of the invention on tubulin, bovine brain tubulin (2.2 mg/ml) was incubated in PEM80 (80 mM K-PIPES, 1 mM MgCl2, 1 mM EGTA) containing 10% glycerol and 2 mM GTP for 30 minutes at 37° C. in the presence or absence of 20 μg/ml nocodazole, 1 mM paclitaxel, or TB compound no. IK-178 at various concentrations. Tubulin polymer was resolved from monomer by sedimentation through a cushion of 60% glycerol in PEM80 at 70,000 rpm for 30 min at 37° C. in a Beckman TLA100 rotor. A fraction of the supernatant was removed for analysis, the cushion washed and then aspirated, and the pellet resuspended in SDS-PAGE sample buffer. Equal proportions of the supernatant and the pellet were then resolved by SDS-PAGE and tubulin visualized by staining with Coomassie blue.
The quantitative assessment of drug inhibition of tubulin polymerization and evaluation of inhibition of [^3 H]colchicine binding to tubulin were then performed. […] Samples were placed on ice and GTP (0.4 mM) was added. Reaction mixtures were transferred to 0° C. cuvettes in Gilford 250 spectrophotometers, baselines were establishes/d, and the temperature was jumped to 30° C. with electronic temperature controllers (about 60 sec). The IC^50 was defined as the drug concentration required to inhibit extent of assembly after a 20 min incubation. […]

tubulin [5] = assay: Inhibition of [3H]vinblastine binding to tubulin; parameters: species or system bovine; details: single experiment
Description: The TB compounds of the invention (as represented by TB compound IK-178), are nearly as potent as the strong tubulin assembly inhibitor, combretastatin A-4 (CS-A4). In particular, the GI^50 inhibitory concentration of CS-A4 was 1.2±0.03 μM (n=4), while that of TB compound IK-178 was 1.7±0.1 μM (n=3).

[6] = average TC50 over various proliferating cell lines, read-out: TC50 (the source's name)
[7] = average TC50, proliferating cells, read-out: TC50 (the source's name)

| SMILES | CC50 [1, 6] | CC50 (proliferating cells; [7]) | further results |
| --- | --- | --- | --- |
| COc1cc2c(cc1OC)C(=O)C(=Cc1cccc(Cl)c1)C2 [5,6-dimethoxy-2-(3'-chlorophenylmethylene)-1-indanone] | > 50000 nM | 2500 nM | – |
| COc1cc2c(c(OC)c1OC)-c1ccc(OC)c(=O)cc1[C@@H](NC(C)=O)CC2 [colchicine, reference compound] | – | – | apoptosis (HL-60/ADR cells): did not induce the apoptosis; caspase-3 activity (caspase-3 in HL-60 cells): did not activate caspase-3 |
| COc1ccc(C=C2CCc3cc(OC)c(OC)cc3C2=O)cc1OC [6,7-dimethoxy-2-(3',4'-dimethoxyphenylmethylene)-1-tetralone] | > 50000 nM | > 50000 nM | – |
| COc1cc2c(cc1OC)C(=O)C(=Cc1cc(OC)c(O)c(OC)c1)C2 [5,6-dimethoxy-2-(3',5'-dimethoxy-4'-hydroxyphenylmethylene)-1-indanone] | > 50000 nM | > 50000 nM | – |
| COc1cc2c(cc1OC)C(=O)C(=Cc1cccc(OC)c1OC)CC2 [6,7-dimethoxy-2-(2',3'-dimethoxyphenylmethylene)-1-tetralone] | > 50000 nM | > 50000 nM | – |
| COc1cc(C=C2Cc3cc(OC)c(OC)cc3C2=O)cc(OC)c1 [5,6-dimethoxy-2-(3',5'-dimethoxyphenylmethylene)-1-indanone] | 750 nM | 2000 nM | CC50 [2]: 750 nM |
| COc1cc2c(cc1OC)C(=O)C(=Cc1cc(C)ccc1C)C2 [5,6-dimethoxy-2-(2',5'-dimethylphenylmethylene)-1-indanone] | 162000 nM | 30500 nM | – |
| COc1ccc(C=C2CCc3cc(OC)c(OC)cc3C2=O)cc1 [6,7-dimethoxy-2-(4'-methoxyphenylmethylene)-1-tetralone] | > 50000 nM | > 50000 nM | – |
| COc1cc2c(cc1OC)C(=O)C(=Cc1cc(F)cc(F)c1)C2 [5,6-dimethoxy-2-(3',5'-difluorophenylmethylene)-1-indanone] | 19000 nM | 19000 nM | – |
| COc1cc2c(cc1OC)C(=O)C(=Cc1ccc(O)cc1)CC2 [6,7-dimethoxy-2-(4'-hydroxyphenylmethylene)-1-tetralone] | 30000 nM | 30000 nM | – |
| COc1cc(/C=C2\CCc3cc(OC)c(OC)cc3C2=O)cc(OC)c1 [6,7-dimethoxy-2-(3',5'-dimethoxyphenylmethylene)-1-tetralone] | 4000 nM | – | CC50 [2]: 5000 nM |
| COc1cc(C=C2Cc3cc(OC)c(OC)cc3C2O)cc(OC)c1 (centres unmarked) [5,6-dimethoxy-2-(3',5'-dimethoxyphenylmethylene)-1-hydroxyindane] | – | – | CC50 [2]: 750 nM |
| COc1cc2c(cc1OC)C(=O)/C(=C/c1cc(C)c(O)c(C)c1)C2 [5,6-dimethoxy-2-(3',5'-dimethyl-4'-hydroxyphenylmethylene)-1-indanone] | – | – | CC50 ([1]; read-out: TC50): 17 nM; CC50 (proliferating cells; read-out: TC50): 6.5 nM |
| CC(=O)O[C@H]1C(=O)[C@@]2(C)[C@H]([C@H](OC(=O)c3ccccc3)[C@]3(O)C[C@H](OC(=O)[C@H](O)[C@@H](NC(=O)c4ccccc4)c4ccccc4)C(C)=C1C3(C)C)[C@]1(OC(C)=O)CO[C@@H]1C[C@@H]2O [Paclitaxel, paclitaxel, reference compound] | – | – | GI50 (MCF-7): 50 ± 6 nM; GI50 (MCF-7/ADR): > 10000 nM; GI50 (MES-SA): < 1 nM; GI50 (MES-SA/DX5): > 1000 nM; GI50 (MDA-MB-321): 50 ± 2 nM; GI50 (MDA3-1/gp170): > 1000 nM; GI50 (HL-60): < 1 nM; GI50 (HL-60/ADR): > 1000 nM; GI50 (CEM): < 1 nM; GI50 (CEM/VLB100): 606 ± 20 nM; GI50 (KB-3-1): 7 ± 3 nM; GI50 (KB-GRC-1): > 1000 nM; GI50 (MV522): 15 ± 4 nM; GI50 (MV522/Q6): 358 ± 8 nM; sensitivity with acquisition of MDR [3]: sensitivity to paclitaxel was lost; sensitivity of transfectomas overexpressing mdr1 (KB-GRC-1 and MV522/Q6): resistant |
| COc1cc2c(cc1OC)C(=O)C(=Cc1cc(C)cc(C)c1)C2 [5,6-dimethoxy-2-(3',5'-dimethylphenylmethylene)-1-indanone] | 75 nM | 81 nM | CC50 [2]: 75 nM |
| COc1cc2c(cc1OC)C(=O)/C(=C/c1cc(Cl)cc(Cl)c1)C2 [5,6-dimethoxy-2-(3',5'-dichlorophenylmethylene)-1-indanone] | 750 nM | 2000 nM | CC50 [2]: 750 nM |
| COc1ccc(/C=C\c2cc(OC)c(OC)c(OC)c2)cc1O [CS-A4, combretastatin A-4, reference compound] | – | – | GI50 (tubulin [4]): 1200 ± 30 nM; inhibition of [3H]vinblastine binding to tubulin (tubulin [5]): Neither agent inhibited |
| COc1cc(C=C2Cc3cc(OC)c(OC)cc3C2=NO)cc(OC)c1 [5,6-dimethoxy-2-(3',5'-dimethoxyphenylmethylene)-1-hydroximinioindane] | 800 nM | – | CC50 [2]: 800 nM |
| COc1cc2c(c(NC(=O)C(=O)O)c1OC)C(=O)C(=Cc1cc(C)c(O)c(C)c1)C2 [5,6-dimethoxy-7-oxalylamino-2-(3',5'-dimethyl-4'-hydroxyphenylmethylene)-1-indanone] | 4 nM | 150 nM | – |
| COc1cc2c(c(N)c1OC)C(=O)C(=Cc1cc(C)c(O)c(C)c1)C2 [5,6-dimethoxy-7-amino-2-(3',5'-dimethyl-4'-hydroxyphenylmethylene)-1-indanone] | 5 nM | 0.8 nM | – |
| COc1cc2c(c([N+](=O)[O-])c1OC)C(=O)/C(=C/c1cc(C)c(O)c(C)c1)C2 [5,6-dimethoxy-7-nitro-2-(3',5'-dimethyl-4'-hydroxyphenylmethylene)-1-indanone] | > 50000 nM | > 50000 nM | – |
| COc1cc2c(cc1OC)C(=O)C(=Cc1cc([N+](=O)[O-])ccc1O)C2 [5,6-dimethoxy-2-(2'-hydroxy-5'-nitrophenylmethylene)-1-indanone] | 15000 nM | 14500 nM | – |
| COc1cc2c(cc1OC)C(=O)C(=Cc1cc(C)c([N+](=O)[O-])c(C)c1)C2 [5,6-dimethoxy-2-(3',5'-dimethyl-4'-nitrophenylmethylene)-1-indanone] | – | > 50000 nM | – |
| COc1cc2c(cc1OC)C(=O)C(=Cc1c(OC)cccc1OC)CC2 [6,7-dimethoxy-2-(2',6'-dimethoxyphenylmethylene)-1-tetralone] | – | > 50000 nM | – |
